Reference: ChEMBL document CHEMBL1131509, “Synthesis and cytotoxicity of 2-acetyl-4,8-dihydrobenzodithiophene-4, 8-dione derivatives” (J Med Chem, 1998)

Experiments:
[1] = tested on: UACC-257; assay: in vitro inhibition of melanoma (UACC-257) cancer cell line; assay type: functional; settings: Homo sapiens
[2] = tested on: M14; assay: in vitro inhibition of melanoma (M14) cancer cell line; assay type: functional; settings: Homo sapiens
[3] = tested on: LOX IMVI; assay: in vitro inhibition of melanoma(LOX IMVI) cancer cell line; assay type: functional; settings: Homo sapiens
[4] = tested on: OVCAR-8; assay: in vitro inhibition of ovarian (OVCAR-8) cancer cell line; assay type: functional; settings: Homo sapiens
[5] = tested on: MDA-N; assay: in vitro inhibition of breast (MDA-N) cancer cell line; assay type: functional; settings: Homo sapiens
[6] = tested on: MDA-MB-435; assay: in vitro inhibition of breast (MDA-MB-435) cancer cell line; assay type: functional; settings: Homo sapiens
[7] = tested on: SK-MEL-2; assay: in vitro inhibition of melanoma (SK-MEL-2) cancer cell line; assay type: functional; settings: Homo sapiens
[8] = tested on: UACC-62; assay: in vitro inhibition of melanoma (UACC-62) cancer cell line; assay type: functional; settings: Homo sapiens
[9] = tested on: HL-60; assay: in vitro inhibition of leukemia (HL-60(TB)) cancer cell line; assay type: functional; settings: Homo sapiens
[10] = tested on: NCI-H23; assay: in vitro inhibition of non-small-cell lung (NCI-H23) cancer cell line; assay type: functional; settings: Homo sapiens
[11] = tested on: Hs-578T; assay: in vitro inhibition of breast (HS 578T) cancer cell line; assay type: functional; settings: Homo sapiens
[12] = tested on: BT-549; assay: in vitro inhibition of breast (BT-549) cancer cell line; assay type: functional; settings: Homo sapiens
[13] = tested on: NCI-H522; assay: in vitro inhibition of non-small-cell lung (NCI-H522) cancer cell line; assay type: functional; settings: Homo sapiens
[14] = tested on: OVCAR-3; assay: in vitro inhibition of ovarian (OVCAR-3) cancer cell line; assay type: functional; settings: Homo sapiens
[15] = tested on: SK-MEL-28; assay: in vitro inhibition of melanoma (SK-MEL-28) cancer cell line; assay type: functional; settings: Homo sapiens
[16] = tested on: SK-MEL-5; assay: in vitro inhibition of melanoma (SK-MEL-5) cancer cell line; assay type: functional; settings: Homo sapiens
[17] = tested on: Malme-3M; assay: in vitro inhibition of melanoma (MALME-3M) cancer cell line; assay type: functional; settings: Homo sapiens
[18] = tested on: KB; assay: cytotoxic activity against […] cancer cell line; assay type: functional, cell-based; settings: Homo sapiens
[19] = tested on: SK-MEL-2; assay: cytotoxic activity against […] cancer cell line; assay type: functional, cell-based; settings: Homo sapiens
[20] = tested on: MCF7; assay: cytotoxic activity against […] cancer cell line; assay type: functional, cell-based; settings: Homo sapiens
[21] = tested on: CAKI-1; assay: cytotoxic activity against […] cancer cell line; assay type: functional, cell-based; settings: Homo sapiens
[22] = tested on: HCT-8; assay: cytotoxic activity against […] cancer cell line; assay type: functional, cell-based; settings: Homo sapiens
[23] = tested on: A549; assay: cytotoxic activity against […] cancer cell line; assay type: functional, cell-based; settings: Homo sapiens
[24] = tested on: BT-549; assay: in vitro inhibition of breast (BT-549) cancer cell line; settings: Homo sapiens
[25] = tested on: L1210 (1565); assay: cytotoxic activity against leukemia (L-1210) cancer cell line; assay type: functional, cell-based; settings: Mus musculus
[26] = tested on: P388; assay: cytotoxic activity against leukemia (P-388) cancer cell line; assay type: functional, cell-based; settings: Mus musculus

Row | SMILES | GI50 [1] | GI50 [2] | GI50 [3] | GI50 [4] | GI50 [5] | GI50 [6] | GI50 [7] | GI50 [8] | GI50 [9] | GI50 [10] | GI50 [11] | GI50 [12] | GI50 [13] | GI50 [14] | GI50 [15] | GI50 [16] | GI50 [17] | other results
1 | CC(=O)c1cc2c(s1)C(=O)c1scc(C(C)=O)c1C2=O | 170 nM | 440 nM | 22 nM | 230 nM | 200 nM | 230 nM | 160 nM | 230 nM | < 10 nM | 290 nM | 280 nM | 910 nM | 380 nM | 30 nM | 200 nM | 320 nM | 220 nM | 
2 | O=C1c2ccsc2C(=O)c2sccc21 |  |  |  |  |  |  |  |  |  |  |  |  |  |  |  |  |  | IC50 [18]: 270 nM; IC50 [19]: 320 nM; IC50 [20]: < 85 nM; IC50 [21]: 590 nM; IC50 [22]: 170 nM; IC50 [23]: 170 nM
3 | CC(=O)c1cc2c(s1)C(=O)c1ccsc1C2=O | 130 nM | 130 nM | 25 nM | 300 nM | 37 nM | 37 nM | 200 nM | 210 nM | 45 nM | 150 nM | 160 nM | 180 nM | 160 nM | 160 nM | 160 nM | 23 nM | 117 nM | 
4 | CC(=O)OC(C)c1cc2c(s1)C(=O)c1sccc1C2=O (configuration not stated) | 210 nM | 160 nM | 210 nM | 1400 nM | 19 nM | 180 nM | 420 nM | 1400 nM | 1700 nM | 220 nM | 510 nM | 280 nM | 870 nM | 490 nM | 650 nM | 110 nM | 120 nM | 
5 | CC(=O)c1cc2c(s1)C(=O)c1sccc1C2=O | 14 nM | 17 nM | < 10 nM | 31 nM | < 10 nM | < 10 nM | 33 nM | 17 nM | < 10 nM | 18 nM | 36 nM | 18 nM | 17 nM | < 10 nM | < 10 nM | < 10 nM | 16 nM | 
6 | CC(O)c1cc2c(s1)C(=O)c1c(C(C)O)csc1C2=O (configuration not stated) | 62 nM | 58 nM | 55 nM | 220 nM | 21 nM | 18 nM | 110 nM | 32 nM | 11 nM | 34 nM | 320 nM |  | 300 nM | 12 nM | 190 nM | 13 nM | 28 nM | GI50 [24]: 160 nM
7 | CC(=O)OC(C)c1cc2c(s1)C(=O)c1c(C(C)OC(C)=O)csc1C2=O (configuration not stated) | 630 nM | 510 nM | 1600 nM | 460 nM | 210 nM | 190 nM | 1600 nM | 1100 nM | 68 nM | 870 nM | 2100 nM |  | < 10 nM | 280 nM | 1700 nM | 630 nM | 190 nM | GI50 [24]: 2100 nM
8 | CC(=O)OC(C)c1cc2c(s1)C(=O)c1scc(C(C)OC(C)=O)c1C2=O (configuration not stated) | 170 nM | 120 nM | 120 nM | 230 nM | 59 nM | 21 nM | 150 nM | 200 nM | 650 nM | 160 nM | 250 nM | 200 nM | 200 nM | 270 nM | 210 nM | 34 nM | 130 nM | 
9 | CC(=O)c1cc2c(s1)C(=O)c1c(C(C)=O)csc1C2=O | 560 nM | 1500 nM | 1100 nM | 1500 nM | 170 nM | 180 nM | 1700 nM | 2000 nM | 53 nM | 1300 nM | 2400 nM |  | 530 nM | 230 nM | 1800 nM | 1200 nM | 130 nM | GI50 [24]: 1700 nM
10 | CC(=O)OC(C)c1cc2c(s1)C(=O)c1ccsc1C2=O (configuration not stated) | 25 nM | 13 nM | < 10 nM | 36 nM | < 10 nM | < 10 nM | 26 nM | 17 nM | < 10 nM | 11 nM | 160 nM |  | 150 nM | < 10 nM | 19 nM | 14 nM | < 10 nM | GI50 [24]: 46 nM
11 | CC(O)c1cc2c(s1)C(=O)c1sccc1C2=O (configuration not stated) | 18 nM | 15 nM | 24 nM | 160 nM | 19 nM | 16 nM | 31 nM | 22 nM | 69 nM | 16 nM | 58 nM | 35 nM | 120 nM | 120 nM | 39 nM | 14 nM | 19 nM | 
12 | CC(O)c1cc2c(s1)C(=O)c1ccsc1C2=O (configuration not stated) | 15 nM | 15 nM | 10 nM | 200 nM | 13 nM | < 10 nM | 91 nM | 16 nM | 15 nM | 15 nM | 110 nM | 78 nM | 120 nM | 24 nM | 17 nM | < 10 nM | 16 nM | 
13 | O=C1c2ccsc2C(=O)c2ccsc21 |  |  |  |  |  |  |  |  |  |  |  |  |  |  |  |  |  | IC50 [18]: 310 nM; IC50 [25]: 1700 nM; IC50 [20]: 480 nM; IC50 [21]: 1500 nM; IC50 [26]: < 530 nM; IC50 [22]: 320 nM; IC50 [23]: 260 nM
14 | CC(O)c1cc2c(s1)C(=O)c1scc(C(C)O)c1C2=O (configuration not stated) | 160 nM | 160 nM | 120 nM | 260 nM | 150 nM | 160 nM | 200 nM | 250 nM | 440 nM | 190 nM | 320 nM | 200 nM | 400 nM | 360 nM | 230 nM | 140 nM | 150 nM | 
